16 molecules from publication PMC10058894, “Bioactive C21 Steroidal Glycosides from Euphorbia kansui Promoted HepG2 Cell Apoptosis via the Degradation of ATP1A1 and Inhibited Macrophage Polarization under Co-Cultivation” (Molecules, 2023) can be followed below.

What all share (format): cell-based
Series [1] has as its system HepG2 cells. As to the kind of experiment: MTT assay, cell viability of HepG2 cells. The procedure: (§1) HepG2 cells (1 × 10^4 cells/well) or RAW264.7 cells ([…]) were incubated in 96T wells for 24 h. Then, HepG2 cells were treated with compounds or Adriamycin for 48 h. In addition, RAW264.7 cells were treated with compounds for 24 h. Then, 0.5% MTT (Sigma, Saint Louis, MO, USA) was added to 20 μL/well for 3.5 h. The supernatant was discarded, and DMSO (150 μL/well) was added to dissolve the purple formazan. Cells were agitated for 15 min at room temperature, and the absorbance at 490 nm was recorded by SpetraMax M2 (Molecular Devices, San Jose, CA, USA).
In general terms: Tetrazolium dyes change colour on reduction, which living cells bring about.

Series [2] concerns Huh-7 cells. As to the kind of experiment: MTT assay, cell viability of Huh-7 cells. The settings on record: Homo sapiens, Huh-7; MTT; read-out: Huh-7 IC50. An excerpt:
2. The anti-proliferation of compound 5 on Huh-7 cells
We tested another hepatoma cell line (Huh-7) to validate effect of compound 5. L02 (normal hepatocytes), HepG2 and Hub-7 cells were used to discuss the effect of 5. […]
of 5 on Huh-7 cell was (24.49±[…]) μM (Table S1). The morphology and apoptosis of the cells by reversed microscope and flow cytometry, respectively.
Second, the expression and phosphorylation of ATP1A1 were detected by Western blot analysis in L02, HepG2 and Huh-7 cells. Compared with L02 group, the expression of ATP1A1 was higher in HepG2 and Huh-7 cells, but there was no significant difference in the phosphorylation of ATP1A1 (Figure […]
At last, the effect of 5 on the expression and the phosphorylation of ATP1A1 in Huh-7 cells was […]
the phosphorylation of ATP1A1. The result was consistent with that observed in HepG2 cells (Figure […]
Table S1 Cell viability of Huh-7 cell treated by compound 5

The target of series [3] is ATP1A1 (Homo sapiens, UniProt P05023). Nature of the series: ATP1A1 level and location in HepG2 cells (western blot, fluorescence staining, lysosomal colocalization). Further details: we focused on the regulatory effect of 5 on ATP1A1 in HepG2 cells; endogenous in cells; host or cells: HepG2. The settings on record: HepG2; 5 25 μmol∙L−1, digitonin 10, MK 2206 40, FR 180204 200 nmol∙L−1; western blot. The procedure: HepG2 cells (4 × 10^5 cells/well) were incubated in confocal dishes with DMEM for 24 h and then treated with compounds for 48 h. Then, the cells were treated with 0.1% Triton X-100 for 10 min and washed with PBS five times. Finally, the cells were dyed with anti-ATP1A1 at 4 °C overnight. Nuclear staining with DAPI (1 μg∙mL^−1) was added for 7 min in the dark, and the cells were washed. The stained images were captured under a laser scanning confocal microscope (Nikon A1 AIR MP+, Tokyo, Japan). HepG2 cells (5 × 10^5 cells/well) were incubated in 6-well plates in complete DMEM. Cells were treated with compounds for 24 h. Then, the cells were stained with Annexin V/PI for 30 min at 4 °C in the dark, and apoptosis analysis was carried out by laser scanning confocal microscopy.
Protein samples were prepared using a RIPA lysis buffer. The concentration of the protein was analyzed using a nucleic acid and protein microanalyzer (Molecular Devices, San Jose, CA, USA). SDS–PAGE was performed to separate the proteins, which were then electrotransferred onto a PVDF membrane. The membrane was incubated with antibodies at 4 °C overnight. Next, the membrane was washed and incubated with an HRP-conjugated secondary antibody (Beyotime, BeiJing, China). Finally, signals were detected by the ECL method (Beyotime, BeiJing, China) and analyzed using ImageJ software.
A general note: A western blot detects proteins with antibodies after separation by electrophoresis.

Series [4] concerns NO production of LPS-stimulated RAW264.7 cells. Nature of the series: Nitric oxide production in LPS-stimulated RAW264.7 cells (Griess). The settings on record: LPS (1 μg/mL)-stimulated RAW264.7 cells, 24 h, read-out: RAW264.7 IC50 (inhibition of nitric oxide production). The procedure:
(§2) RAW264.7 cells (8 × 10^4 cells/well) were incubated in 96T wells with DMEM for 24 h and then treated with compounds and LPS (1 μg/mL) for 24 h; this included the control group and LPS group. Then, the cell supernatant was collected for nitric oxide production assay. Next, 100 uL/well PBS was added to 96T wells, then 0.5% MTT (Sigma, Saint Louis, MO, USA) was added to 20 μL/well for 3.5 h. DMSO (150 μL/well) was added to dissolve the purple formazan. Cells were agitated for 15 min at room temperature, and the absorbance at 490 nm was recorded by SpetraMax M2 (Molecular Devices, San Jose, CA, USA). The NO inhibition rate (%) = (ODLPS group − ODcompound group)/(ODLPS group-ODcontrol group) × 100%. The IC50 value refers to the inhibitory of nitric oxide production of LPS-stimulated RAW264.7 cells. Then, 70 uL of each cell supernatant sample was added into a new 96T plate, and Griess A and Griess B were added separately. Then, the absorbance value at 540 nm was detected and then brought into the standard curve to assay the concentration of NO. The cell survival rate (%) = (ODcompound group − ODblank group)/(ODcontrol group − ODblank group) × 100%. The half concentration of the cell death (CC50) value refers to the concentration of compound 5 when 50% of RAW264.7 cells die. The iNOS inhibitor ([…], L-NMMA) was selected as the positive control. The levels of cytokines (IL-1β, IFN-γ, IL-10, TNF-α, and IL-6) in the cell supernatant were determined using an ELISA kit (Novus Biologicals, Shanghai, China, Lot: 834472, 770118, 772051, 486956, 602865). When the process was conducted according to the manufacturer’s instructions, the absorbance was read at 450 nm/570 nm in a SpectraMax 340PC microplate spectrophotometer (Molecular Devices, San Jose, CA, USA).
(Nitrite, measured by Griess reagent, commonly stands in for NO production.)

For series [5], the system named is RAW264.7 cells. Nature of the series: MTT assay, cell viability of RAW264.7 cells. The following applies: half inhibitory of RAW264.7 cells, 24 h. The procedure: as §1, §2
Series [6] can be described thus: MTT assay, cell viability of RAW264.7 cells. The following applies: mouse, half inhibitory of RAW264.7 cells. The procedure: as §1, §2

As usually defined, the IC50 is the midpoint of a concentration-inhibition curve. The term CC50 denotes the concentration giving 50% cytotoxicity.

Where two headings read alike, the source gives them in different places. Bounds are passed on as bounds.

Regarding `COc1cccc2c1C(=O)c1c(O)c3c(c(O)c1C2=O)C[C@@](O)(C(=O)CO)C[C@@H]3O[C@H]1C[C@H](N)[C@H](O)[C@H](C)O1` [Adr, adriamycin, reference compound], the IC50 in series [1] (Homo sapiens, HepG2, 48 h) is 6.93 ± 1.23 µM; in series [1] (Homo sapiens, HepG2, fractions A–E, 48 h), 5.98 ± 2.06 µg/mL; in series [2], 4.49 ± 0.96 µM.

As for `C[C@@H]1CC[C@@]2(OC1)O[C@H]1[C@@H](O)[C@H]3[C@@H]4CC[C@H]5C[C@@H](O[C@@H]6O[C@H](CO)[C@H](O[C@@H]7O[C@H](CO)[C@@H](O)[C@H](O[C@@H]8OC[C@@H](O)[C@H](O)[C@H]8O)[C@H]7O[C@@H]7O[C@H](CO)[C@H](O)[C@H](O[C@@H]8O[C@H](CO)[C@@H](O)[C@H](O)[C@H]8O)[C@H]7O)[C@H](O)[C@H]6O)[C@H](O)C[C@]5(C)[C@H]4CC[C@]3(C)[C@H]1[C@@H]2C` [digitonin, reference compound], the “expression of ATP1A1 (comparison with inhibitors)” value in series [3] is recorded as “not similarly observed”.

Regarding `Nc1[nH]nc2nnc(-c3c(-c4ccccc4)nn4ccccc34)cc12` [FR 180204, reference compound], the “expression of ATP1A1 (comparison with inhibitors)” value in series [3] is “not similarly observed”.

Turning to `CO[C@H]1C[C@@H](O[C@H]2[C@H](C)O[C@H](O[C@H]3[C@@H](C)O[C@H](O[C@H]4[C@@H](OC)C[C@H](O[C@@H]5CC[C@]6(C)C(=CCC(=O)[C@H]6C[C@H](OC(=O)/C=C/c6ccccc6)[C@]6(C)C(=O)CC[C@]6(O)[C@@H](C)OC(C)=O)C5)O[C@@H]4C)C[C@H]3OC)C[C@H]2OC)O[C@H](C)[C@H]1O` [Compound 7, Wilfoside G], the IC50 came out at 12.6 ± 2.98 µM in series [1] (48 h) and 1.77 ± 0.34 µM in series [4]. In series [5], this molecule gave a CC50 of 26.2 ± 2.22 µM.

For “Kidjoranin-3-O-β-D-cymaropyranoside [Compound 6]”, the figures for the 50% inhibitory concentration (IC50) in series [1] (48 h) and in series [4] were 27.3 ± 3.48 µM and 3.32 ± 0.43 µM, respectively. This molecule also returned a half-maximal cytotoxic concentration (CC50) in series [5] of 35.2 ± 5.12 µM.

As to “Caudatin 3-O-β-D-digitoxopyranoside [Compound 12]”, the concentration for half-maximal inhibition (IC50) in series [1] (48 h) and in series [4] was above 50 µM each time. In series [5], this molecule came in with a half-maximal cytotoxic concentration (CC50) above 50 µM.

In the case of `NC1(c2ccc(-c3nc4ccn5c(=O)[nH]nc5c4cc3-c3ccccc3)cc2)CCC1` [MK 2206, reference compound], in series [3], the “expression of ATP1A1 (comparison with inhibitors)” value is given as “not similarly observed”.

On to “Kidjoranin 3-O-α-diginopyranosyl-(1→4)-β-cymaropyranoside [Compound 10]”, for which the IC50 amounted to 22.7 ± 4.02 µM in series [1] (48 h) and 2.78 ± 0.44 µM in series [4]. Further, the half-maximal cytotoxic concentration (CC50) in series [5] was determined as 24.1 ± 3.24 µM.

As to `CC(=O)[C@]1(O)CC[C@@]2(O)[C@]1(C)[C@H](O)C[C@@H]1[C@@]3(C)CC[C@H](O)CC3=CC[C@]12O` [Compound 3, Deacylmetaplexigenin], the half-maximal inhibitory concentration (IC50) in series [1] (48 h) and in series [4] was above 50 µM each time. This molecule showed a half-maximal cytotoxic concentration (CC50) in series [5] above 50 µM.

For `[H]/N=C(/NC)NCCC[C@H](N)C(=O)O` [L-NMMA, NG-monnomycin-L-arginine, reference compound], the IC50 in series [4] (Mus musculus) was 21.2 ± 3.26 µM. The same molecule registered a CC50 at 24 h in series [6] above 50 µM.

Regarding “Kidjoranin 3-O-β-digitoxopyranoside [Compound 11]”, the half-inhibitory concentration (IC50) in series [1] (48 h) and in series [4] was above 50 µM each time. This molecule also yielded a 50% cytotoxic concentration (CC50) in series [5] above 50 µM.

For `CC(=O)[C@]1(O)CC[C@@]2(O)[C@]1(C)[C@H](OC(=O)/C=C/c1ccccc1)C[C@@H]1[C@@]3(C)CC[C@H](O)CC3=CC[C@]12O` [Compound 4, Kidjolanin], the figures for the IC50 in series [1] (48 h) and in series [4] were above 50 µM and 30.7 ± 4.08 µM, respectively. Besides, the half-maximal cytotoxic concentration (CC50) in series [5] was above 50 µM.

Regarding Eupokanu G [Compound 1], the IC50 in series [1] (48 h) is 46.4 ± 3.09 µM; in series [4] it was above 50 µM. For the same molecule, the half-maximal cytotoxic concentration (CC50) in series [5] is above 50 µM.

For the molecule `CC1(C)CC[C@]2(C(=O)O)CC[C@]3(C)C(=CC[C@@H]4[C@@]5(C)C[C@@H](O)[C@H](O)C(C)(C)[C@@H]5CC[C@]43C)[C@@H]2C1` [Compound 9, Maslinic acid], the half-inhibitory concentration (IC50) is above 50 µM in series [1] (Homo sapiens, HepG2, 48 h) and 17.4 ± 2.21 µM in series [4] (Mus musculus). The same molecule returned a CC50 at 24 h in series [6] above 50 µM.

For the molecule Cynotophylloside B [Compound 2], the IC50 came out at 41.1 ± 6.05 µM in series [1] (48 h) and 9.1 ± 2.27 µM in series [4]. Moreover, the 50% cytotoxic concentration (CC50) in series [5] is above 50 µM.

As to Cynotophylloside J [Compound 8], the values for the IC50 in series [1] (48 h) and in series [4] were above 50 µM and 17.4 ± 3.01 µM, respectively. Moreover, in series [5], the CC50 was above 50 µM.
